US20260102472A1, “SEMAGLUTIDE IN MEDICAL THERAPY” (Novo Nordisk A/S, priority 2023, published 2026)

Assays:
[1] = test system: human subjects with established cardiovascular (CV) disease and obesity or overweight; experiment: Randomised, double-blind, placebo-controlled clinical trial of semaglutide in established cardiovascular disease and obesity or overweight (Example 3); assay type: in vivo; conditions: for Heart failure leading to hospitalisation, Treatment Hazard ratio vs. placebo / Heart failure leading to hospitalisation, Events / Heart failure leading to hospitalisation, Events (%): baseline to end-of-trial (mean duration 39.8 months), 2.4 mg once weekly
Experimental: A randomised, double-blind, international multicentre, placebo-controlled clinical trial with semaglutide was carried out with 17604 human subjects with established cardiovascular (CV) disease and obesity or overweight.
Key inclusion criteria were at least 45 years of age, BMI of at least 27 kg/m^2 and established (CV) disease. Key exclusion criteria were type 1 diabetes or type 2 diabetes.
Subjects were randomised in a 1:1 manner to receive either 2.4 mg semaglutide or placebo once weekly as add-on to standard of care. After randomization, a 16-week dose escalation period followed and then an event driven maintenance period with a mean (+SD) duration of exposure to semaglutide or placebo in the overall trial population of 34.2 (±13.7) months (33.3 (±14.4) months for semaglutide and 35.1 (±13.0) months for placebo). Subjects administered semaglutide initiated treatment with a once-weekly dose of 0.25 mg and followed a fixed dose escalation regimen, with dose increase every 4 weeks (through dosages of 0.5, 1.0, 1.7 mg once weekly), until the 2.4 mg once weekly maintenance dose was reached after 16 weeks.
Results from the clinical trial are presented in Tables 19-20 based on 8803 and 8801 subjects randomised to semaglutide and placebo, respectively. Results from the chronic heart failure (HF) population of the clinical trial are presented in Tables 21-22 based on 2155 and 2131 chronic HF subjects randomised to semaglutide and placebo, respectively. Heart failure leading to hospitalisation was defined as hospital admission for at least 24 hours with a primary diagnosis of heart failure with documented new or worsening symptoms due to heart failure; and objective evidence of new or worsening heart failure (physical findings and/or laboratory evidence or invasive diagnostic evidence); and increased/initiated appropriate treatment. Estimated hazard ratios relative to placebo and two-sided p-values were obtained from a Cox proportional hazards model with randomised treatment as a fixed factor. CI: Confidence interval.

[2] = test system: hospitalisation for heart failure; conditions: 0.5 mg or 1.0 mg subcutaneous once weekly, compared to placebo; cited from earlier work
[3] = subjects with chronic HF only (2155)

N-epsilon26-[2-(2-{2-[2-(2-{2-[(S)-4-Carboxy-4-(17-carboxyheptadecanoyl-amino) butyrylamino]ethoxy}ethoxy) acetylamino]ethoxy}ethoxy) acetyl] [Aib8,Arg34] GLP-1-(7-37) [Semaglutide]
Heart failure leading to hospitalisation, Treatment Hazard ratio vs. placebo [1]: 0.79 | Heart failure leading to hospitalisation, Events ([1]; 8803 subjects): 97 | Heart failure leading to hospitalisation, Events (%) ([1]; 8803 subjects): 1.1% | Heart failure leading to hospitalisation, Treatment Hazard ratio vs. placebo ([1]; listed as semaglutide): achieved a reduction | Reduction for CV death compared with placebo ([1]; patients with chronic heart failure, statistically significant): 24% | Heart failure leading to hospitalisation, Events [1, 3]: 61 | Heart failure leading to hospitalisation, Events (%) [1, 3]: 2.8% | Heart failure leading to hospitalisation, Treatment Hazard ratio vs. placebo ([1]; subjects with chronic HF only): 0.86 | Heart failure leading to hospitalisation, Treatment Hazard ratio vs. placebo ([1]; subjects with chronic HF only, listed as semaglutide): achieved a reduction | Hospitalisation for heart failure, hazard ratio (95% confidence interval) [2]: 1.11 (0.77−1.61)
